These are literature values, as cited in article PMC5766731 (Clinical Pharmacokinetics, 2017).

For the series the following is noted: cited from earlier work.

The structures appear in SMILES notation.

Consider `O=C(O)CNC(=O)c1ncc(-c2cccc(Cl)c2)cc1O` [vadadustat], for which the “pharmacokinetics in CKD patients (stages 3 and 4)” value is on record as “not found to be significantly altered”. Moreover, under “healthy subjects”, the “renal CL mechanisms, share of the radioactive dose” value is “approximately 59%”.
